Patent US20020169101A1, “Treatment of sexual dysfunction” (priority 1999, published 2002)
pIC50: −log10 of the molar value. Like-named read-outs stand apart in the source and are kept apart here.

Experiments:
human GRP receptor (BB2) = target: T1, human GRP receptor (BB2) (Homo sapiens, UniProt P30550); test: BB2 binding assay ([125I][Tyr4]bombesin displacement, CHO-K1 membranes)
T1 construct: expressed in transfected cells; membranes prepared from the cells
Protocol: (§1) In the following experiments, measurement of BB1 and BB2 binding was as follows. CHO-K1 cells stably expressing cloned human NMB (for (BB1 assay) and GRP receptors (for BB2 assay) were routinely grown in Ham's F12 culture medium supplemented with 10% foetal calf serum and 2 mM glutamine. For binding experiments, cells were harvested by trypsinization, and stored frozen at −70° C. in Ham's F12 culture medium containing 5% DMSO until required. On the day of use, cells were thawed rapidly, diluted with an excess of culture medium, and centrifuged for 5 minutes at 2000 g. Cells were resuspended in 50 mM Tris-HCl assay buffer (pH 7.4 at 21° C., containing 0.02% BSA, 40 μg/mL bacitracin, 2 μg/mL chymostatin, 4 μg/mL leupeptin, and 2 μM phosphoramidon), counted, and polytronned (setting 5, 10 sec) before centrifuging for 10 minutes at 28,000 g. The final pellet was resuspended in assay buffer to a final cell concentration of 1.5×10^5/mL. For binding assays, […] aliquots of membranes were incubated with [^125I][Tyr^4]bombesin (<0.1 nM) in the presence and absence of test compounds (final assay volume 250 μL) for 60 minutes and 90 minutes for NMB and GRP receptors, respectively. Nonspecific binding was defined by 1 μM bombesin. Assays were terminated by rapid filtration under vacuum onto Whatman GF/C filters presoaked in 0.2% PEI for >2 hours, and washed 50 mM Tris-HCl (pH 6.9 at 21° C.; 6×1 mL). Radioactivity bound was determined using a gamma counter.
(§2) All competition data was analysed using nonlinear regression utilizing iterative curve-plotting procedures in Prism® (GraphPad Software Inc., San Diego, USA). IC50 values were corrected to Ki values using the Cheng-Prusoff equation (Cheng Y., Prusoff W. H., Biochem. Pharmacol. 22: 3099-3108, 1973). obtained are listed in Table 1.

human NMB receptor (BB1) = target: T2, human NMB receptor (BB1) (Homo sapiens, UniProt P28336); test: BB1 binding assay ([125I][Tyr4]bombesin displacement, CHO-K1 membranes)
T2 construct: expressed in transfected cells; membranes prepared from the cells
T2 sequence (P28336 whole entry): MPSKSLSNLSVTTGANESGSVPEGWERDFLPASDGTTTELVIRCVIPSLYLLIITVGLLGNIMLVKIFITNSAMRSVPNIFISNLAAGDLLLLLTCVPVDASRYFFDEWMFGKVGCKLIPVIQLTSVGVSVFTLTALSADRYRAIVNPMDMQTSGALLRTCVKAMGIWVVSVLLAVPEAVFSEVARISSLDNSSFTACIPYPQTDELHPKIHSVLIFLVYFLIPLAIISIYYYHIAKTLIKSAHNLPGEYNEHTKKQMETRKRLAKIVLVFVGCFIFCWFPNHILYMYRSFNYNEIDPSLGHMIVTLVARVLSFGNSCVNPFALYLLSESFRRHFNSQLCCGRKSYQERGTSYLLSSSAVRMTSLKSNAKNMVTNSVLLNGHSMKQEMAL
Protocol: as §1, §2

[1] = Table 3, N-acyl derivatives of Intermediate III-7
[2] = second 'TABLE 4', N-terminal urethane derivatives of Intermediate III-7

T1 sequence (P30550 whole entry): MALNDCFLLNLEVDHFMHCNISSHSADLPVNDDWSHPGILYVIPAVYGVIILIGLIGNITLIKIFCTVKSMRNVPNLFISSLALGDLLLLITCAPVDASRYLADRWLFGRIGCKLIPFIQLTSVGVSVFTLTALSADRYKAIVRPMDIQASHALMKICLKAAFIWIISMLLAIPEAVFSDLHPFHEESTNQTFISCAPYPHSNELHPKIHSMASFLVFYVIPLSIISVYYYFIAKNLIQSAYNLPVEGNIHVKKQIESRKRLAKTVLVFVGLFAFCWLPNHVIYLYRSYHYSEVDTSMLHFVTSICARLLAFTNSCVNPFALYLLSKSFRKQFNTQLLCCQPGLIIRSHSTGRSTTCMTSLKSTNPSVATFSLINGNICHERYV

pIC50 (human GRP receptor (BB2); [1])	pIC50 (human NMB receptor (BB1); [1])	SMILES	also measured
< 5.00	6.13	Cc1ccsc1C(=O)N[C@@](C)(Cc1c[nH]c2ccccc12)C(=O)NCC1(c2ccccn2)CCCCC1 [Example 74, 3-Methyl-thiophene-2-carboxylic acid {(S)-2-(1H-indol-3-yl)-1-methyl-1-[(1-pyridin-2-yl-cyclohexylmethyl)-carbamoyl]-ethyl}-amide]	–
< 5.00	5.77	COc1ccc(CC(=O)N[C@@](C)(Cc2c[nH]c3ccccc23)C(=O)NCC2(c3ccccn3)CCCCC2)cc1 [Example 82, (S)-3-(1H-Indol-3-yl)-2-[2-(4-methoxy-phenyl)-ethanoylamino]-2-methyl-N-(1-pyridin-2-yl-cyclohexylmethyl)-propionamide]	–
< 5.00	5.70	C[C@@](Cc1c[nH]c2ccccc12)(NC(=O)Cc1ccccc1[N+](=O)[O-])C(=O)NCC1(c2ccccn2)CCCCC1 [Example 84, (S)-3-(1H-Indol-3-yl)-2-methyl-2-[2-(2-nitro-phenyl)-ethanoylamino]-N-(1-pyridin-2-yl-cyclohexylmethyl)-propionamide]	–
< 5.00	5.57	CN(C)c1ccc(CC(=O)N[C@@](C)(Cc2c[nH]c3ccccc23)C(=O)NCC2(c3ccccn3)CCCCC2)cc1 [Example 83, (S)-2-[2-(4-Dimethylamino-phenyl)-ethanoylamino]-3-(1H-indol-3-yl)-2-methyl-N-(1-pyridin-2-yl-cyclohexylmethyl)-propionamide]	–
< 5.00	5.55	Cc1cccc(C(=O)N[C@@](C)(Cc2c[nH]c3ccccc23)C(=O)NCC2(c3ccccn3)CCCCC2)n1 [Example 76, 6-Methyl-pyridine-2-carboxylic acid {(S)-2-(1H-indol-3-yl)-1-methyl-1-[(1-pyridin-2-yl-cyclohexylmethyl)-carbamoyl]-ethyl}-amide]	–
< 5.00	5.84	C[C@@](Cc1c[nH]c2ccccc12)(NC(=O)Cc1ccsc1)C(=O)NCC1(c2ccccn2)CCCCC1 [Example 56, (S)-3-(1H-Indol-3-yl)-2-methyl-N-(1-pyridin-2-yl-cyclohexylmethyl)-2-(2-thiophen-3-yl-ethanoylamino)-propionamide]	–
< 5.00	5.86	C[C@@](Cc1c[nH]c2ccccc12)(NC(=O)c1ccncc1)C(=O)NCC1(c2ccccn2)CCCCC1 [Example 58]	–
< 5.00	5.48	Cc1ccccc1C(=O)N[C@@](C)(Cc1c[nH]c2ccccc12)C(=O)NCC1(c2ccccn2)CCCCC1 [Example 47, N—{(S)-2-(1H-Indol-3-yl)-1-methyl-1-[(1-pyridin-2-yl-cyclohexylmethyl)-carbamoyl]-ethyl}-2-methyl-benzamide]	–

Further lines, the compound ahead of its results:

SMILES	pIC50 (human GRP receptor (BB2); [1])	pIC50 (human NMB receptor (BB1); [1])	also measured
C[C@@](Cc1c[nH]c2ccccc12)(NC(=O)c1ccc([N+](=O)[O-])cc1)C(=O)NCC1(c2ccccn2)CCCCC1 [Example 36, N—{(S)-2-(1H-Indol-3-yl)-1-methyl-1-[(1-pyridin-2-yl-cyclohexylmethyl)-carbamoyl]-ethyl}-4-nitro-benzamide]	< 5.00	6.46	–
C[C@@](Cc1c[nH]c2ccccc12)(NC(=O)OCc1ccc(Cl)c(Cl)c1)C(=O)NCC1(c2ccccn2)CCCCC1 [Example 91, {(S)-2-(1H-Indol-3-yl)-1-methyl-1-[(1-pyridin-2-yl-cyclohexylmethyl)-carbamoyl]-ethyl}-carbamic acid 3,4-dichloro-benzyl ester]	–	–	pIC50 (human GRP receptor (BB2); [2]): < 5.00; pIC50 (human NMB receptor (BB1); [2]): 6.69
C[C@@](Cc1c[nH]c2ccccc12)(NS(=O)(=O)c1ccccc1Cl)C(=O)NCC1(c2ccccn2)CCCCC1 [Example 113, (S)-2-(2-chloro-benzenesulfonylamino)-3-(1H-indol-3-yl)-2-methyl-N-(1-pyridin-2-yl-cyclohexylmethyl)-propionamide]	–	–	pIC50 (human GRP receptor (BB2)): < 5.00; pIC50 (human NMB receptor (BB1)): 6.59
C[C@@](Cc1c[nH]c2ccccc12)(NC(=O)c1ccccc1F)C(=O)NCC1(c2ccccn2)CCCCC1 [Example 49, 2-Fluoro-N—{(S)-2-(1H-indol-3-yl)-1-methyl-1-[(1-pyridin-2-yl-cyclohexylmethyl)-carbamoyl]-ethyl}-benzamide]	< 5.00	5.40	–
C[C@@](Cc1c[nH]c2ccccc12)(NC(=O)c1ccc2ncsc2c1)C(=O)NCC1(c2ccccn2)CCCCC1 [Example 72, Benzothiazole-6-carboxylic acid {(S)-2-(1H-indol-3-yl)-1-methyl-1-[(1-pyridin-2-yl-cyclohexylmethyl)-carbamoyl]-ethyl}-amide]	5.83	6.05	–
C[C@@](Cc1c[nH]c2ccccc12)(NC(=O)c1cccc(C#N)c1)C(=O)NCC1(c2ccccn2)CCCCC1 [Example 38, 3-Cyano-N—{(S)-2-(1H-indol-3-yl)-1-methyl-1-[(1-pyridin-2-yl-cyclohexylmethyl)-carbamoyl]-ethyl}-benzamide]	< 5.00	5.69	–
C[C@@](Cc1c[nH]c2ccccc12)(NS(=O)(=O)c1cccc(F)c1)C(=O)NCC1(c2ccccn2)CCCCC1 [Example 126]	–	–	pIC50 (human GRP receptor (BB2)): 5.56; pIC50 (human NMB receptor (BB1)): 6.39
C[C@@](Cc1c[nH]c2ccccc12)(NC(=O)c1cccc2[nH]ccc12)C(=O)NCC1(c2ccccn2)CCCCC1 [Example 68, 1H-Indole-4-carboxylic acid {(S)-2-(1H-indol-3-yl)-1-methyl-1-[(1-pyridin-2-yl-cyclohexylmethyl)-carbamoyl]-ethyl}-amide]	< 5.00	5.35	–
Cc1ccc(Oc2ccccc2S(=O)(=O)N[C@@](C)(Cc2c[nH]c3ccccc23)C(=O)NCC2(c3ccccn3)CCCCC2)cc1 [Example 153, (S)-3-(1H-indol-3-yl)-2-methyl-N-(1-pyridin-2-yl-cyclohexylmethyl)-2-(2-p-tolyloxy-benzenesulfonylamino)-propionamide]	–	–	pIC50 (human GRP receptor (BB2)): < 5.00; pIC50 (human NMB receptor (BB1)): 7.05
CCOc1cccc(COC(=O)N[C@@](C)(Cc2c[nH]c3ccccc23)C(=O)NCC2(c3ccccn3)CCCCC2)c1 [Example 102, {(S)-2-(1H-Indol-3-yl)-1-methyl-1-[(1-pyridin-2-yl-cyclohexylmethyl)-carbamoyl]-ethyl}-carbamic acid 3-ethoxy-benzyl ester]	–	–	pIC50 (human GRP receptor (BB2); [2]): < 5.00; pIC50 (human NMB receptor (BB1); [2]): 5.97
C[C@@](Cc1c[nH]c2ccccc12)(NC(=O)c1cc2ccccc2s1)C(=O)NCC1(c2ccccn2)CCCCC1 [Example 71, Benzo[b]thiophene-2-carboxylic acid {(S)-2-(1H-indol-3-yl)-1-methyl-1-[(1-pyridin-2-yl-cyclohexylmethyl)-carbamoyl]-ethyl}-amide]	< 5.00	6.21	–
C[C@@](Cc1c[nH]c2ccccc12)(NC(=O)c1cccc(Cl)c1)C(=O)NCC1(c2ccccn2)CCCCC1 [Example 39, 3-Chloro-N—{(S)-2-(1H-indol-3-yl)-1-methyl-1-[(1-pyridin-2-yl-cyclohexyl-methyl)-carbamoyl]-ethyl}-benzamide]	< 5.00	5.90	–
C[C@@](Cc1c[nH]c2ccccc12)(NC(=O)OCc1cccc(C#N)c1)C(=O)NCC1(c2ccccn2)CCCCC1 [Example 103, {(S)-2-(1H-Indol-3-yl)-1-methyl-1-[(1-pyridin-2-yl-cyclohexylmethyl)-carbamoyl]-ethyl}-carbamic acid 3-cyano-benzyl ester]	–	–	pIC50 (human GRP receptor (BB2); [2]): < 5.00; pIC50 (human NMB receptor (BB1); [2]): 7.07
C[C@@](Cc1c[nH]c2ccccc12)(NC(=O)c1ccccc1-n1cccc1)C(=O)NCC1(c2ccccn2)CCCCC1 [Example 81, N—{(S)-2-(1H-Indol-3-yl)-1-methyl-1-[(1-pyridin-2-yl-cyclohexylmethyl)-carbamoyl]-ethyl}-2-pyrrol-1-yl-benzamide]	< 5.00	6.44	–
C[C@@](Cc1c[nH]c2ccccc12)(NS(=O)(=O)c1cccc2ccccc12)C(=O)NCC1(c2ccccn2)CCCCC1 [Example 115, (S)-3-(1H-indol-3-yl)-2-methyl-2-(naphthalene-1-sulfonylamino)-N-(1-pyridin-2-yl-cyclohexylmethyl)-propionamide]	–	–	pIC50 (human GRP receptor (BB2)): 5.80; pIC50 (human NMB receptor (BB1)): 6.73
C[C@@](Cc1c[nH]c2ccccc12)(NC(=O)OCc1ccccc1F)C(=O)NCC1(c2ccccn2)CCCCC1 [Example 94, {(S)-2-(1H-Indol-3-yl)-1-methyl-1-[(1-pyridin-2-yl-cyclohexylmethyl)-carbamoyl]-ethyl}-carbamic acid 2-fluoro-benzyl ester]	–	–	pIC50 (human GRP receptor (BB2); [2]): < 5.00; pIC50 (human NMB receptor (BB1); [2]): 6.03
C[C@@](Cc1c[nH]c2ccccc12)(NC(=O)c1cccc2cc[nH]c12)C(=O)NCC1(c2ccccn2)CCCCC1 [Example 69, 1H-Indole-7-carboxylic acid {(S)-2-(1H-indol-3-yl)-1-methyl-1-[(1-pyridin-2-yl-cyclohexylmethyl)-carbamoyl]-ethyl}-amide]	< 5.00	5.86	–
